Results from PubChem BioAssay (NCI).
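Step 1: Grow cells in 96-well plates. Step 2: Expose to compound for 48 hours at 5 concentrations. Step 3: Interpolate endpoints linearly; if unreached, use highest concentration. At the GI50, growth is halved. Definition used: TGI = concentration required for complete inhibition of growth.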

Columns and labels:
Experiment in all cases: inhibition of tumour cell growth, NCI panel, 48 h
786-0 renal = test system: 786-0 renal
A498 renal = test system: A498 renal
ACHN renal = test system: ACHN renal
BT-549 breast = test system: BT-549 breast
CCRF-CEM leukemia = test system: CCRF-CEM leukemia
DU-145 prostate = test system: DU-145 prostate
HCC-2998 colon = test system: HCC-2998 colon
HL-60(TB) leukemia = test system: HL-60(TB) leukemia
HOP-62 NSCLC = test system: HOP-62 NSCLC
K-562 leukemia = test system: K-562 leukemia
M14 melanoma = test system: M14 melanoma
MOLT-4 leukemia = test system: MOLT-4 leukemia
OVCAR-3 ovarian = test system: OVCAR-3 ovarian
OVCAR-5 ovarian = test system: OVCAR-5 ovarian
RXF 393 renal = test system: RXF 393 renal
SK-MEL-5 melanoma = test system: SK-MEL-5 melanoma
SK-OV-3 ovarian = test system: SK-OV-3 ovarian
SNB-19 CNS = test system: SNB-19 CNS
SNB-75 CNS = test system: SNB-75 CNS
TK-10 renal = test system: TK-10 renal
UACC-257 melanoma = test system: UACC-257 melanoma
UACC-62 melanoma = test system: UACC-62 melanoma
COLO 205 colon = test system: COLO 205 colon
HS 578T breast = test system: HS 578T breast
IGROV1 ovarian = test system: IGROV1 ovarian
MCF7 breast = test system: MCF7 breast
NCI-H226 lung = test system: NCI-H226 lung
OVCAR-8 ovarian = test system: OVCAR-8 ovarian
RPMI-8226 leukemia = test system: RPMI-8226 leukemia
SF-268 CNS = test system: SF-268 CNS
SF-295 CNS = test system: SF-295 CNS
SW-620 colon = test system: SW-620 colon
UO-31 renal = test system: UO-31 renal
A549 NSCLC = test system: A549 NSCLC
CAKI-1 renal = test system: CAKI-1 renal
EKVX NSCLC = test system: EKVX NSCLC
HCT-116 colon = test system: HCT-116 colon
HCT-15 colon = test system: HCT-15 colon
HOP-92 NSCLC = test system: HOP-92 NSCLC
HT29 colon = test system: HT29 colon
KM12 colon = test system: KM12 colon
LOX IMVI melanoma = test system: LOX IMVI melanoma
MALME-3M melanoma = test system: MALME-3M melanoma
MDA-MB-435 = test system: MDA-MB-435
NCI-H460 lung = test system: NCI-H460 lung
NCI-H522 lung = test system: NCI-H522 lung
NCI/ADR-RES ovarian = test system: NCI/ADR-RES ovarian
OVCAR-4 ovarian = test system: OVCAR-4 ovarian
PC-3 prostate = test system: PC-3 prostate
SF-539 CNS = test system: SF-539 CNS
SK-MEL-2 melanoma = test system: SK-MEL-2 melanoma
SK-MEL-28 melanoma = test system: SK-MEL-28 melanoma
SN12C renal = test system: SN12C renal
SR leukemia = test system: SR leukemia
T-47D breast = test system: T-47D breast
U251 CNS = test system: U251 CNS

Clc1ccc(-c2c3ccc(=[N+]4CCCCC4)cc-3oc3cc(N4CCCCC4)ccc23)cc1
GI50 (786-0 renal): 0.103 µM
TGI (786-0 renal): 0.226 µM
GI50 (A498 renal): 0.035 µM
TGI (A498 renal): 0.15 µM
GI50 (ACHN renal): 0.0909 µM
TGI (ACHN renal): 0.229 µM
GI50 (BT-549 breast): 0.154 µM
TGI (BT-549 breast): 0.31 µM
GI50 (CCRF-CEM leukemia): 0.153 µM
TGI (CCRF-CEM leukemia): 1.97 µM
GI50 (DU-145 prostate): 0.0632 µM
TGI (DU-145 prostate): 0.214 µM
GI50 (HCC-2998 colon): 0.12 µM
TGI (HCC-2998 colon): 0.248 µM
GI50 (HL-60(TB) leukemia): 0.0942 µM
TGI (HL-60(TB) leukemia): 0.471 µM
GI50 (HOP-62 NSCLC): 0.0635 µM
TGI (HOP-62 NSCLC): 0.202 µM
GI50 (K-562 leukemia): 0.153 µM
TGI (K-562 leukemia): 0.779 µM
GI50 (M14 melanoma): 0.0696 µM
TGI (M14 melanoma): 0.209 µM
GI50 (MOLT-4 leukemia): 0.159 µM
TGI (MOLT-4 leukemia): 0.741 µM
GI50 (OVCAR-3 ovarian): 0.132 µM
TGI (OVCAR-3 ovarian): 0.274 µM
GI50 (OVCAR-5 ovarian): 0.145 µM
TGI (OVCAR-5 ovarian): 0.323 µM
GI50 (RXF 393 renal): 0.129 µM
TGI (RXF 393 renal): 0.279 µM
GI50 (SK-MEL-5 melanoma): 0.156 µM
TGI (SK-MEL-5 melanoma): 0.291 µM
GI50 (SK-OV-3 ovarian): 0.204 µM
TGI (SK-OV-3 ovarian): 0.715 µM
GI50 (SNB-19 CNS): 0.133 µM
TGI (SNB-19 CNS): 0.313 µM
GI50 (SNB-75 CNS): 0.0494 µM
TGI (SNB-75 CNS): 0.333 µM
GI50 (TK-10 renal): 0.129 µM
TGI (TK-10 renal): 0.345 µM
GI50 (UACC-257 melanoma): 0.13 µM
TGI (UACC-257 melanoma): 0.304 µM
GI50 (UACC-62 melanoma): 0.18 µM
TGI (UACC-62 melanoma): 0.452 µM

CC(=O)O[C@H]1CC2C(C3CCC(C(C)CCC(N)=O)[C@]31C)[C@H](OC(C)=O)C[C@@H]1CC3(CC[C@]21C)OOC1(CC[C@]2(C)C4C[C@H](OC(C)=O)[C@]5(C)C(C(C)CCC(N)=O)CCC5C4[C@H](OC(C)=O)C[C@@H]2C1)OO3 (stereo not given in full)
TGI (COLO 205 colon): 2.84 µM
TGI (DU-145 prostate): 3.49 µM
TGI (HL-60(TB) leukemia): 4.19 µM
TGI (HOP-62 NSCLC): 3.86 µM
TGI (HS 578T breast): 4.55 µM
TGI (IGROV1 ovarian): 3.28 µM
TGI (K-562 leukemia): > 100 µM
TGI (MCF7 breast): 4.08 µM
TGI (NCI-H226 lung): 2.79 µM
TGI (OVCAR-3 ovarian): 2.85 µM
TGI (OVCAR-8 ovarian): 3.66 µM
TGI (RPMI-8226 leukemia): > 100 µM
TGI (RXF 393 renal): 3.34 µM
TGI (SF-268 CNS): 3.37 µM
TGI (SF-295 CNS): 3.2 µM
TGI (SK-OV-3 ovarian): 3.95 µM
TGI (SW-620 colon): > 100 µM
TGI (UO-31 renal): 2.36 µM

COc1ccc(/C=C/c2c(C(=O)/C=C/c3ccc(C(F)(F)F)cc3)c(C)nc3ccccc23)cc1
GI50 (786-0 renal): 1.61 µM
TGI (786-0 renal): 3.02 µM
GI50 (A498 renal): 1.77 µM
TGI (A498 renal): 3.24 µM
GI50 (A549 NSCLC): 2.71 µM
TGI (A549 NSCLC): 8.57 µM
GI50 (ACHN renal): 1.5 µM
TGI (ACHN renal): 2.84 µM
GI50 (BT-549 breast): 1.8 µM
TGI (BT-549 breast): 4 µM
GI50 (CAKI-1 renal): 1.13 µM
TGI (CAKI-1 renal): 2.56 µM
GI50 (CCRF-CEM leukemia): 0.425 µM
TGI (CCRF-CEM leukemia): > 100 µM
GI50 (COLO 205 colon): 2.1 µM
TGI (COLO 205 colon): 4.67 µM
GI50 (DU-145 prostate): 1.76 µM
TGI (DU-145 prostate): 3.71 µM
GI50 (EKVX NSCLC): 1.72 µM
TGI (EKVX NSCLC): 4.49 µM
GI50 (HCC-2998 colon): 1.51 µM
TGI (HCC-2998 colon): 3.07 µM
GI50 (HCT-116 colon): 0.414 µM
TGI (HCT-116 colon): 1.97 µM
GI50 (HCT-15 colon): 1.14 µM
TGI (HCT-15 colon): 4.59 µM
GI50 (HL-60(TB) leukemia): 1.92 µM
TGI (HL-60(TB) leukemia): 5.67 µM
GI50 (HOP-92 NSCLC): 1.62 µM
TGI (HOP-92 NSCLC): 3.59 µM
GI50 (HS 578T breast): 2.87 µM
TGI (HS 578T breast): 8.29 µM
GI50 (HT29 colon): 1.13 µM
TGI (HT29 colon): 6.6 µM
GI50 (IGROV1 ovarian): 0.466 µM
TGI (IGROV1 ovarian): 2.39 µM
GI50 (K-562 leukemia): 2.05 µM
TGI (K-562 leukemia): > 100 µM
GI50 (KM12 colon): 2.12 µM
TGI (KM12 colon): 5.09 µM
GI50 (LOX IMVI melanoma): 1.37 µM
TGI (LOX IMVI melanoma): 2.74 µM
GI50 (MALME-3M melanoma): 1.71 µM
TGI (MALME-3M melanoma): 3.19 µM
GI50 (MCF7 breast): 1 µM
TGI (MCF7 breast): 3.4 µM
GI50 (MDA-MB-435): 1.89 µM
TGI (MDA-MB-435): 3.72 µM
GI50 (MOLT-4 leukemia): 1.04 µM
TGI (MOLT-4 leukemia): > 100 µM
GI50 (NCI-H226 lung): 1.85 µM
TGI (NCI-H226 lung): 4.01 µM
GI50 (NCI-H460 lung): 1.87 µM
TGI (NCI-H460 lung): 4.22 µM
GI50 (NCI-H522 lung): 1.67 µM
TGI (NCI-H522 lung): 5.69 µM
GI50 (NCI/ADR-RES ovarian): 2.36 µM
TGI (NCI/ADR-RES ovarian): 7.46 µM
GI50 (OVCAR-3 ovarian): 1.64 µM
TGI (OVCAR-3 ovarian): 3.48 µM
GI50 (OVCAR-4 ovarian): 1.81 µM
TGI (OVCAR-4 ovarian): 3.67 µM
GI50 (OVCAR-5 ovarian): 2.13 µM
TGI (OVCAR-5 ovarian): 5.53 µM
GI50 (OVCAR-8 ovarian): 2.22 µM
TGI (OVCAR-8 ovarian): > 100 µM
GI50 (PC-3 prostate): 1.83 µM
TGI (PC-3 prostate): 5.58 µM
GI50 (RPMI-8226 leukemia): 0.807 µM
TGI (RPMI-8226 leukemia): 7.65 µM
GI50 (RXF 393 renal): 1.74 µM
TGI (RXF 393 renal): 3.52 µM
GI50 (SF-268 CNS): 1.8 µM
TGI (SF-268 CNS): 3.67 µM
GI50 (SF-295 CNS): 1.71 µM
TGI (SF-295 CNS): 3.28 µM
GI50 (SF-539 CNS): 1.85 µM
TGI (SF-539 CNS): 3.34 µM
GI50 (SK-MEL-2 melanoma): 2.05 µM
TGI (SK-MEL-2 melanoma): 4.64 µM
GI50 (SK-MEL-28 melanoma): 1.82 µM
TGI (SK-MEL-28 melanoma): 3.47 µM
GI50 (SK-MEL-5 melanoma): 1.68 µM
TGI (SK-MEL-5 melanoma): 3.09 µM
GI50 (SK-OV-3 ovarian): 2.24 µM
TGI (SK-OV-3 ovarian): 5.82 µM
GI50 (SN12C renal): 2.02 µM
TGI (SN12C renal): 5.66 µM
GI50 (SNB-19 CNS): 1.62 µM
TGI (SNB-19 CNS): 3.05 µM
GI50 (SNB-75 CNS): 1.43 µM
TGI (SNB-75 CNS): 2.85 µM
GI50 (SR leukemia): 0.599 µM
TGI (SR leukemia): > 100 µM
GI50 (SW-620 colon): 1.48 µM
TGI (SW-620 colon): 4.7 µM
GI50 (T-47D breast): 1.31 µM
TGI (T-47D breast): 3.78 µM
GI50 (TK-10 renal): 2.56 µM
TGI (TK-10 renal): 4.38 µM
GI50 (U251 CNS): 1.53 µM
TGI (U251 CNS): 3.28 µM
GI50 (UACC-257 melanoma): 2.09 µM
TGI (UACC-257 melanoma): 4.52 µM
GI50 (UACC-62 melanoma): 1.6 µM
TGI (UACC-62 melanoma): 3.42 µM
GI50 (UO-31 renal): 1.11 µM
TGI (UO-31 renal): 2.33 µM
